# Test results taken from patent US20240166669A1, “QUINAZOLINE AMINE DERIVATIVES AS KRAS INHIBITORS” (Nikang Therapeutics, Inc., priority 2021, published 2024).
# Biological target: T1, K-Ras G12D (Homo sapiens, UniProt P01116, G12D)
# T1 construct: AGS (Cobioer, CBP60476) cell lines which harbor KRAS G12D mutation; host or cells: AGS
# Test: p-ERK Cellular 2-Plate Assay (Biological Example 2)
# Format: cell-based
# Details: AGS cells (KRAS G12D), 3 h treatment, AlphaLISA p-ERK1/2, 2-plate; Biological Example 2 (unmarked values); read-out: AGS PERK EC50
# Description: The ability of the compound of Formula (IIA′), (II′), or (II) or a pharmaceutically acceptable salt thereof (test compound) to inhibit K-Ras G12D activity was tested using AGS (Cobioer, CBP60476) cell lines which harbor KRAS G12D mutation as described below.
# AGS (Cobioer, CBP60476) were seeded in 384-well plates and cultured overnight (10.000 cells per well 40 μl total volume). The following morning, cells were treated with test compound, with staring concentration at 10 μM and 3-fold dilution down to 0.5 nM for 3 h at 37° C., DMSO treatment served as control. p-ERK was then measured using AlphaLISA SureFire Ultra p-ERK1/2 (Thr202/Tyr204) Assay Kit (Perkin Elmer, cat #ALSU-PERK) following the manufacturer's instruction as follows.
# Briefly, the culture medium was removed and 20 μl 1× lysis buffer was added to each well, followed by 30 minutes incubation on a plate shaker at room temperature. Then 10 μl of lysate was transferred to a white 384-well plate. Acceptor mixture was prepared according to manufacturer's instruction. 5 μl acceptor mixture was added to the cell lysate and the plate was wrapped with foil, spun at 500 rpm for 10 s, and incubated at RT for 60 min. Donor mixture was prepared under subdued light. 5 μl donor mixture was added to the cell lysate and the plate was spun at 500 rpm for 10s and incubated at RT for another 60 min. in the dark. Signal was then measured on a EnVision 2105 multimode plate reader. Percentage inhibition was calculated with DMSO treatment as 100% of signal, and IC50 was calculated by XLfit 5.5.x.
# T1 sequence (P01116 1-188 isoform P01116-2 G12D): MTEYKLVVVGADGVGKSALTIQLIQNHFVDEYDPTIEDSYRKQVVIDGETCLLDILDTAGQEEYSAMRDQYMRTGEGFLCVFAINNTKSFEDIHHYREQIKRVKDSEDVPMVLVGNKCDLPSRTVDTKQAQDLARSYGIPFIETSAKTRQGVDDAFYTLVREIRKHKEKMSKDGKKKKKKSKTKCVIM
row,EC50 [nM],SMILES
1,0.48,C#Cc1cccc2cc(O)cc(-c3ncc4c(N5CC6CCC(C5)N6)nc(OC[C@@]56CCCN5[C@@H]5CCOCC5C6)nc4c3F)c12 (mixture of isomers) [Example 23]
2,6.6,C#Cc1cccc2cc(O)cc(-c3ncc4c(N5CC6CCC(C5)N6)nc(OC[C@]56CCCN5[C@H]5c7ccnn7CC5C6)nc4c3F)c12 (mixture of isomers) [Example 37]
3,1.1,C#Cc1cccc2cc(O)cc(-c3ncc4c(N5CC6CCC(C5)N6)nc(OC[C@]56CCCN5[C@H]5c7cccnc7OCC5C6)nc4c3F)c12 (mixture of isomers) [Example 38]
4,0.25,C#Cc1cccc2cc(O)cc(-c3ncc4c(N5CC6CCC(C5)N6)nc(OC[C@]56CCCN5[C@H]5c7ccccc7OCC5C6)nc4c3F)c12 (mixture of isomers) [Example 39]
5,0.2,"C#Cc1cccc2cc(O)cc(-c3ncc4c(N5C[C@H]6CC[C@@H](C5)N6)nc(OCC56CCCN5CC(=C)C6)nc4c3F)c12 (stereo partly drawn) [Example 1, 4-(4-((1R,5S)-3,8-diazabicyclo[3.2.1]octan-3-yl)-8-fluoro-2-((2-methylene-tetrahydro-1H-pyrrolizin-7a(5H)-yl)methoxy)pyrido[4,3-d]pyrimidin-7-yl)-5-ethynyl-naphthalen-2-ol]"
6,0.2,"C#Cc1cccc2cc(O)cc(-c3ncc4c(N5C[C@H]6CC[C@@H](C5)N6)nc(OCC56CCCN5CC(=CF)C6)nc4c3F)c12 (stereo partly drawn) [Example 2, 4-(4-((1R,5S)-3,8-diazabicyclo[3.2.1]octan-3-yl)-8-fluoro-2-((2-(fluoro-methylene)tetrahydro-1H-pyrrolizin-7a(5H)-yl)methoxy)pyrido[4,3-d]pyrimidin-7-yl)-5-ethynylnaphthalen-2-ol]"
7,1.5,"C#Cc1cccc2cc(O)cc(-c3ncc4c(N5C[C@H]6CC[C@@H](C5)N6)nc(OCC56CCCN5CC(=CC(F)F)C6)nc4c3F)c12 (stereo partly drawn) [Example 3, 4-(4-((1R,5S)-3,8-diazabicyclo[3.2.1]octan-3-yl)-2-((2-(2,2-difluoroethylidene)-tetrahydro-1H-pyrrolizin-7a(5H)-yl)methoxy)-8-fluoropyrido[4,3-d]pyrimidin-7-yl)-5-ethynylnaphthalen-2-ol]"
8,320,"C#Cc1cccc2cc(O)cc(-c3ncc4c(N5C[C@H]6CC[C@@H](C5)N6)nc(OCC56CCCN5c5ccccc5C6)nc4c3F)c12 (stereo partly drawn) [Example 5, 4-(4-((1R,5S)-3,8-diazabicyclo[3.2.1]octan-3-yl)-2-((2,3-dihydro-1H-pyrrolo[1,2-a]-indol-9a(9H)-yl)methoxy)-8-fluoropyrido[4,3-d]pyrimidin-7-yl)-5-ethynylnaphthalen-2-ol]"
9,0.6,"C#Cc1cccc2cc(O)cc(-c3ncc4c(N5C[C@H]6CC[C@@H](C5)N6)nc(OCC56CCCN5Cc5ccccc56)nc4c3F)c12 (stereo partly drawn) [Example 6, 4-(4-((1R,5S)-3,8-diazabicyclo[3.2.1]octan-3-yl)-2-((2,3-dihydro-1H-pyrrolo[2,1-a]-isoindol-9b(5H)-yl)methoxy)-8-fluoropyrido[4,3-d]pyrimidin-7-yl)-5-ethynylnaphthalen-2-ol]"
10,260,"C#Cc1cccc2cc(O)cc(-c3ncc4c(N5CC6C=C(C#N)C(C5)N6)nc(OCC56CCCN5CCC6)nc4c3F)c12 (stereo not drawn) [Example 7, 3-(7-(8-ethynyl-3-hydroxynaphthalen-1-yl)-8-fluoro-2-((tetrahydro-1H-pyrrolizin-7a(5H)-yl)methoxy)pyrido[4,3-d]pyrimidin-4-yl)-3,8-diazabicyclo[3.2.1]oct-6-ene-6-carbonitrile]"
11,253,"C#Cc1cccc2cc(O)cc(-c3ncc4c(N5CC6NC(C5)C5CC65)nc(OCC56CCCN5CCC6)nc4c3F)c12 (stereo not drawn) [Example 9, 5-ethynyl-4-(8-fluoro-2-((tetrahydro-1H-pyrrolizin-7a(5H)-yl)methoxy)-4-(7,9-diazatricyclo[3.3.1.02,4]nonan-7-yl)pyrido[4,3-d]pyrimidin-7-yl)naphthalen-2-ol]"
12,128,"C#Cc1cccc2cc(O)cc(-c3ncc4c(N5CC6CC(=C)C(C5)N6)nc(OCC56CCCN5CCC6)nc4c3F)c12 (stereo not drawn) [Example 10, 5-ethynyl-4-(8-fluoro-4-(6-methylene-3,8-diazabicyclo[3.2.1]octan-3-yl)-2-((tetrahydro-1H-pyrrolizin-7a(5H)-yl)methoxy)pyrido[4,3-d]pyrimidin-7-yl)naphthalen-2-ol]"
13,7,"C#Cc1c(F)ccc2cccc(-c3ncc4c(N5C[C@H]6CC[C@@H](C5)N6)nc(OCC56CCCN5CC(=C)C6)nc4c3F)c12 (stereo partly drawn) [Example 11, 4-((1R,5S)-3,8-diazabicyclo[3.2.1]octan-3-yl)-7-(8-ethynyl-7-fluoronaphthalen-1-yl)-8-fluoro-2-((2-methylenetetrahydro-TH-pyrrolizin-7a(5H)-yl)methoxy)pyrido[4,3-d]pyrimidine]"
14,105,"C#Cc1c(F)ccc2cccc(-c3ncc4c(N5CC6CCC(C5)N6)nc(OCC56CCCN5Cc5ccccc56)nc4c3F)c12 (stereo not drawn) [Example 12, 9b-(((4-(3,8-diazabicyclo[3.2.1]octan-3-yl)-7-(8-ethynyl-7-fluoronaphthalen-1-yl)-8-fluoropyrido[4,3-d]pyrimidin-2-yl)oxy)methyl)-2,3,5,9b-tetrahydro-1H-pyrrolo[2,1-a]isoindole]"
15,0.1,C#Cc1cccc2cc(O)cc(-c3ncc4c(N5CC6CCC(C5)N6)nc(OCC56CCCN5CC(=CC)C6)nc4c3F)c12 (stereo not drawn) [Example 15]
16,1,"C=C1CN2CCCC2(COc2nc(N3C[C@H]4CC[C@@H](C3)N4)c3cnc(-c4cc(O)cc5cccc(F)c45)c(F)c3n2)C1 (stereo partly drawn) [Example 22, 4-(4-((1R,5S)-3,8-diazabicyclo-[3.2.1]octan-3-yl)-8-fluoro-2-((2-methylenetetrahydro-1H-pyrrolizin-7a(5H)-yl)methoxy)pyrido[4,3-d]-pyrimidin-7-yl)-5-fluoronaphthalen-2-ol]"
17,3.7,"C#Cc1cccc2cc(O)cc(-c3ncc4c(N5CC6CCC(C5)N6)nc(OCC56CCCN5Cc5c(F)cccc56)nc4c3F)c12 (stereo not drawn) [Example 24, 4-(4-(3,8-diazabicyclo[3.2.1]octan-3-yl)-8-fluoro-2-((6-fluoro-2,3-dihydro-1H-pyrrolo[2,1-a]isoindol-9b(5H)-yl)-methoxy)pyrido[4,3-d]pyrimidin-7-yl)-5-ethynylnaphthalen-2-ol]"
18,3,"C#Cc1cccc2cc(O)cc(-c3ncc4c(N5CC6CCC(C5)N6)nc(OCC56CCCN5Cc5cc(F)ccc56)nc4c3F)c12 (stereo not drawn) [Example 25, 4-(4-(3,8-diazabicyclo[3.2.1]octan-3-yl)-8-fluoro-2-((7-fluoro-2,3-dihydro-1H-pyrrolo[2,1-a]isoindol-9b(5H)-yl)-methoxy)pyrido[4,3-d]pyrimidin-7-yl)-5-ethynylnaphthalen-2-ol]"
19,7,"C#Cc1cccc2cc(O)cc(-c3ncc4c(N5CC6CCC(C5)N6)nc(OCC56CCCN5Cc5ccc(F)cc56)nc4c3F)c12 (stereo not drawn) [Example 26, 4-(4-(3,8-diazabicyclo[3.2.1]octan-3-yl)-8-fluoro-2-((8-fluoro-2,3-dihydro-1H-pyrrolo[2,1-a]isoindol-9b(5H)-yl)-methoxy)pyrido[4,3-d]pyrimidin-7-yl)-5-ethynylnaphthalen-2-ol]"
20,20,"C#Cc1cccc2cc(O)cc(-c3ncc4c(N5CC6CCC(C5)N6)nc(OCC56CCCN5Cc5cccc(F)c56)nc4c3F)c12 (stereo not drawn) [Example 27, 4-(4-(3,8-diazabicyclo[3.2.1]octan-3-yl)-8-fluoro-2-((9-fluoro-2,3-dihydro-1H-pyrrolo[2,1-a]isoindol-9b(5H)-yl)-methoxy)pyrido[4,3-d]pyrimidin-7-yl)-5-ethynylnaphthalen-2-ol]"
21,46,"C#Cc1cccc2cc(O)cc(-c3ncc4c(N5CC6CCC(C5)N6)nc(OCC56CCCN5Cc5cccnc56)nc4c3F)c12 (stereo not drawn) [Example 28, 4-(4-(3,8-diazabicyclo[3.2.1]octan-3-yl)-2-((8,9-dihydro-5H-pyrido[2,3-a]-pyrrolizin-9a(7H)-yl)methoxy)-8-fluoropyrido[4,3-d]pyrimidin-7-yl)-5-ethynylnaphthalen-2-ol]"
22,2,"C#Cc1cccc2cc(O)cc(-c3ncc4c(N5C[C@H]6CC[C@@H](C5)N6)nc(OCC56CCCN5Cc5c(OC)cccc56)nc4c3F)c12 (stereo partly drawn) [Example 29, 4-(4-((1R,5S)-3,8-diazabicyclo-[3.2.1]octan-3-yl)-8-fluoro-2-((6-methoxy-2,3-dihydro-1H-pyrrolo[2,1-a]-isoindol-9b(5H)-yl)methoxy)-pyrido[4,3-d]-pyrimidin-7-yl)-5-ethynylnaphthalen-2-ol]"
23,4,"C#Cc1cccc2cc(O)cc(-c3ncc4c(N5C[C@H]6CC[C@@H](C5)N6)nc(OCC56CCCN5Cc5cc(OC)ccc56)nc4c3F)c12 (stereo partly drawn) [Example 30, 4-(4-((1R,5S)-3,8-diazabicyclo-[3.2.1]octan-3-yl)-8-fluoro-2-((7-methoxy-2,3-dihydro-1H-pyrrolo[2,1-a]isoindol-9b(5H)-yl)methoxy)-pyrido[4,3-d]-pyrimidin-7-yl)-5-ethynylnaphthalen-2-ol]"
24,4.1,"C#Cc1cccc2cc(O)cc(-c3ncc4c(N5CC6CCC(C5)N6)nc(OCC56CCCN5Cc5cnccc56)nc4c3F)c12 (stereo not drawn) [Example 31, 4-(4-(3,8-diazabicyclo[3.2.1]octan-3-yl)-2-((6,7-dihydro-5H-pyrido[4,3-a]pyrrolizin-4b(9H)-yl)methoxy)-8-fluoropyrido[4,3-d]pyrimidin-7-yl)-5-ethynylnaphthalen-2-ol]"
